Assay results from patent US12123028B2, “Viral inactivation methods for continuous manufacturing of antibodies” (Bayer HealthCare LLC, priority 2018, dated 2024).
Entries after “also recorded” stand apart in the source; their conditions may differ.

Columns and labels:
[1] = system: X-MuLV; experiment: Dual X-MuLV inactivation by low pH and detergent in mAb protein A eluate, remaining infectivity by TCID50 assay on PG-4 cells; format: cell-based, Xenotropic Murine Leukemia Virus; settings: for LRF ± 95% CL: 16° C.
Description: […] The pH adjusted eluates were then filtered by a 0.22 um filter. Various volumes of 5% detergent stock solution were then added to the filtered protein A eluates. The low pH protein A eluates containing Mega-10, Tween 80 or Tween 20 were pre-incubated at a 16° C. water bath prior to spiking with X-MuLV at a 1:20 ratio. After a thorough mixing, an aliquot of sample was removed immediately and neutralized with 1 M Tris buffer to stop low pH viral inactivation, then immediately quenched with diluent at 1:12 for Mega-10 or at 1:100 for Tween 20 and Tween 80 to stop viral inactivation by the detergent. The collected sample was designated as a time-zero reference. The remaining spiked eluate was returned to the water bath and the samples were collected at indicated times to evaluate the viral inactivation kinetics. The remaining X-MuLV infectivity in the samples post-inactivation treatment was determined by a TCID50 assay that is an endpoint dilution assay to quantify the amount of virus required to produce a cytopathic effect in 50% of inoculated tissue culture cells. Virus titers were estimated using the Spearman-Karber method and reported as TCID50/mL with a calculated 95% confidence interval (CI). Briefly, a sufficient number of 96-well plates with PG-4 (feline S^+L^−, ATCC#CRL-2032) cells were prepared the day before starting the viral inactivation experiments and incubated overnight in a 37° C. humidified CO2 incubator. A set of ten 3.2 fold dilution of the diluted positive control (1:100) and viral inactivated samples were prepared in a dilution block. Each set of the 11 serial dilutions of the samples were inoculated correspondingly onto wells (100 μL per well) of the first 11 columns in a 96-well plate that had been pre-seeded with PG-4 cells. The 12th column in the same plate was inoculated with the corresponding diluent to serve as non-virus negative control. The positive control was prepared by spiking the filtered neutralized protein A eluate with X-MuLV at a 1:20 ratio. The inoculated plates were then incubated in a 37° C. humidified CO2 incubator for approximate 2 hours. A volume of 100 uL of 2× assay medium (92% McCoy's 5A medium, 4% FBS, 2% Penicillin/Streptomycin, 2% L-Glutamine) was added to each well of the plates at the end of incubation. The plates were then returned to the same incubator, and continued incubation for 6 days. Each well of the plates were scored under a microscope for the presence of cytopathic effect (CPE) and the results were recorded in a scoring sheet. Virus titers were then estimated using the Spearman-Karber method and reported as TCID50/mL with a calculated 95% confidence interval (CI).

[2] = system: aquatic environment; settings: cited from earlier work

CCCCCCCCCC(=O)N(C)C[C@H](O)[C@@H](O)[C@H](O)[C@H](O)CO [Mega-10, N-Methylglucamide]
LRF ± 95% CL ([1]; dual treatment pH 3.91 + 0.10% Mega 10, mAb1 protein A eluate, 0 minutes): 3.74 ± 0.33 | LRF ± 95% CL ([1]; dual treatment pH 3.91 + 0.10% Mega 10, mAb1 protein A eluate, 2.5 minutes): ≥ 5.40±0.21 | LRF ± 95% CL ([1]; dual treatment pH 3.91 + 0.10% Mega 10, mAb1 protein A eluate, 2.5 minutes, listed as Mega 10): ≥5.40 ± 0.21 | LRF ± 95% CL ([1]; dual treatment pH 3.91 + 0.10% Mega 10, mAb1 protein A eluate, 5 minutes): ≥5.40 ± 0.21 | LRF ± 95% CL ([1]; dual treatment pH 3.91 + 0.10% Mega 10, mAb1 protein A eluate, 10 minutes): ≥5.40 ± 0.21 | LRF ± 95% CL ([1]; dual treatment pH 3.91 + 0.10% Mega 10, mAb1 protein A eluate, 30 minutes): ≥5.40 ± 0.21 | LRF ± 95% CL ([1]; dual treatment pH 4.05 + 0.15% Mega 10, mAb2 protein A eluate, 0 minutes): 1.62 ± 0.27 | LRF ± 95% CL ([1]; dual treatment pH 4.05 + 0.15% Mega 10, mAb2 protein A eluate, 2.5 minutes): 3.96 ± 0.31 | LRF ± 95% CL ([1]; dual treatment pH 4.05 + 0.15% Mega 10, mAb2 protein A eluate, 5 minutes): 5.50±0.83 | LRF ± 95% CL ([1]; dual treatment pH 4.05 + 0.15% Mega 10, mAb2 protein A eluate, 5 minutes, listed as Mega 10): 5.50 ± 0.83 | LRF ± 95% CL ([1]; dual treatment pH 4.05 + 0.15% Mega 10, mAb2 protein A eluate, 10 minutes): ≥5.81 ± 0.18^ | LRF ± 95% CL ([1]; dual treatment pH 4.05 + 0.15% Mega 10, mAb2 protein A eluate, 30 minutes): ≥5.81 ± 0.18^ | time to inactivate X-MuLV to the level below the detection limit ([1]; dual treatment: mAb1 protein A eluate pH 3.91 with 0.1% Mega-10, 16° C. (240 minutes by pH 3.91 alone at 18° C.)): 2.5 min | time needed for inactivating X-MuLV to the level below the detection limit ([1]; dual treatment: mAb2 protein A eluate pH 4.05 with 0.15% Mega-10, 16° C. (120 minutes by pH 4.0 alone at 18° C.)): 10 min | toxicity to the aquatic environment [2]: without toxicity to the aquatic environment; also recorded: no toxicity to the aquatic environment
